Source: article PMC10397291, “Molecular pathway and structural mechanism of human oncochannel TRPV6 inhibition by the phytocannabinoid tetrahydrocannabivarin” (Nature Communications, 2023)
“Also recorded” adds a separate entry of the source.

What was measured:
TRPV5 = tested on: TRPV5; design: method as in PMID 30170189; settings: at the tested doses; cited from earlier work
TRPV6 [1] = settings: at the tested doses; cited from earlier work
TRPV6 [2] = tested on: TRPV6; design: method as in doi:10.1038/nature17975; settings: ref doi:10.1038/nature17975; cited from earlier work
L490W mutant hTRPV6 = target: T1, L490W mutant hTRPV6 (Homo sapiens, UniProt Q9H1D0, L530W); assay: Fura-2 AM Ca2+ uptake, L490W mutant hTRPV6; format: cell-based; settings: L490W
T1 construct: Full-length wild-type or mutant human TRPV6 was expressed in HEK 293S cells as described above; expressed in transfected cells; host or cells: HEK 293S GnTI- (baculovirus/BacMam transduction)
T1 sequence (Q9H1D0 41-765 L530W limits assumed): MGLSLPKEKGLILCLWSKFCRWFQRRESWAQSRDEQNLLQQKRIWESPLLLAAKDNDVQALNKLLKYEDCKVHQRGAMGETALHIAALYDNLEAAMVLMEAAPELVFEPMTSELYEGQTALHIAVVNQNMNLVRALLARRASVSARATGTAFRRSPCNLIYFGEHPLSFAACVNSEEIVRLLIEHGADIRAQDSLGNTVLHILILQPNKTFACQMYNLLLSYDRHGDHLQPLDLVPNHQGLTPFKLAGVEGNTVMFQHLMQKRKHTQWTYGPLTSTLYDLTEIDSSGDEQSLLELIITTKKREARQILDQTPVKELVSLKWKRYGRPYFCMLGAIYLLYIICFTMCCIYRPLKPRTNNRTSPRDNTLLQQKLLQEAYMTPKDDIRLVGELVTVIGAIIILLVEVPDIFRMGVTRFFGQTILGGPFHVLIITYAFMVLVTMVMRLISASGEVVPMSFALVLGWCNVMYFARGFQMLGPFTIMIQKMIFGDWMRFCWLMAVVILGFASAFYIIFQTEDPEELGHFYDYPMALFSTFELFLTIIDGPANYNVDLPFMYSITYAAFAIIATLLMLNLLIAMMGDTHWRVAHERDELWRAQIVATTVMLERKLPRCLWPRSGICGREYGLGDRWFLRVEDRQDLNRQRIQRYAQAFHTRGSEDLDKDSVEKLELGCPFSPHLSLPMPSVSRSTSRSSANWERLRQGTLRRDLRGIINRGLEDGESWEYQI

[3] = target: C-terminally truncated human TRPV6 (hTRPV6-CtD, residues 1–666 of wild-type channel) (human); assay: cryo-EM structure; hTRPV6-CtD in cNW30 nanodiscs with soybean lipids, 114 µM THCV; 150 mM NaCl, 20 mM Tris-HCl pH 8.0, 1 mM βME; C4 symmetry, 2.79 Å
[4] = target: full-length human TRPV6 L490W mutant with C-terminal streptavidin affinity tag and eGFP (FSEC construct) (human); assay: SEC; fluorescence-detection SEC (FSEC) of eGFP-tagged channels; HEK cells solubilised in 1% DDM, 0.1% CHS, supernatant on Superose 6 10/300 GL in 1 mM DDM, 20 mM Tris-HCl pH 8.0, 150 mM NaCl, 1 mM βME
[5] = target: full-length wild-type human TRPV6 with C-terminal streptavidin affinity tag and eGFP (FSEC construct) (human); assay: as above

For `C=C(C)[C@@H]1CCC(C)=C[C@H]1c1c(O)cc(CCCCC)cc1O` [CBD, cannabidiol], the “antagonist effect on TRPV5” value (TRPV5) is given as “ineffective” and the “antagonist effect on TRPV6” value (TRPV6 [1]) is given as “Lack of CBD effect; also recorded: do not modulate; also recorded: ineffective”.
In the case of `[Gd+3]` [Gd3+], the “block of the calcium uptake signal” value (TRPV6 [2]) is listed as “full block of the signal”, the “block of Ca2+ uptake” value (L490W mutant hTRPV6; 100 µM Gd3+) is listed as “complete block” and the “inhibition of calcium uptake” value (L490W mutant hTRPV6; 100 mM Gd3+ as printed, n = 3) is listed as “complete inhibition”.
“C-terminally truncated human TRPV6 (hTRPV6-CtD, residues 1–666 of wild-type channel) (domain or fragment)” gave a stoichiometry N [3] of 4.
“full-length human TRPV6 L490W mutant with C-terminal streptavidin affinity tag and eGFP (FSEC construct) (natural protein)” gave a stoichiometry N [4] of 4.
“full-length wild-type human TRPV6 with C-terminal streptavidin affinity tag and eGFP (FSEC construct) (natural protein)” showed a stoichiometry N [5] of 4.
